The values below come from patent US20240140963A1, “FUSED TRICYCLIC CYCLIN-DEPENDENT KINASE INHIBITOR, AND PREPARATION METHOD THEREFOR AND PHARMACEUTICAL USE THEREOF” (Tuojie Biotech (Shanghai) Co., Ltd., priority 2021, published 2024).

One series concerns the target T1, CDK4/cyclin D1 (Homo sapiens, UniProt P11802).
T1 construct: purchased ProQinase 0142-0143-1
Put plainly: CDK4/cyclin D1 kinase activity, mobility shift assay. Type of series: biochemical. As to the method: (§1) In vitro CDK kinase activity was tested using a mobility shift assay.
(§2) The IC50 values of the compounds were obtained by fitting using XLFit excel add-in version 5.4.0.8. Fitting formula:
(§3) Y=Bottom+(Top−Bottom)/(1+10^((Log IC50−X)×Hill Slope)). • X: the log value of the compound concentration; Y: the percent inhibition of the compound.

Another series concerns the target T2, CDK6/cyclin D3 (Homo sapiens, UniProt Q00534).
T2 construct: purchased Carna 04-107
Put plainly: CDK6/cyclin D3 kinase activity, mobility shift assay. The format is biochemical. As to the method:
as §1, §2, §3

Another series concerns the target T3, human PXR (Homo sapiens, UniProt O75469).
T3 construct: host or cells: DPX2 (HepG2)
T3 sequence (O75469 1-434): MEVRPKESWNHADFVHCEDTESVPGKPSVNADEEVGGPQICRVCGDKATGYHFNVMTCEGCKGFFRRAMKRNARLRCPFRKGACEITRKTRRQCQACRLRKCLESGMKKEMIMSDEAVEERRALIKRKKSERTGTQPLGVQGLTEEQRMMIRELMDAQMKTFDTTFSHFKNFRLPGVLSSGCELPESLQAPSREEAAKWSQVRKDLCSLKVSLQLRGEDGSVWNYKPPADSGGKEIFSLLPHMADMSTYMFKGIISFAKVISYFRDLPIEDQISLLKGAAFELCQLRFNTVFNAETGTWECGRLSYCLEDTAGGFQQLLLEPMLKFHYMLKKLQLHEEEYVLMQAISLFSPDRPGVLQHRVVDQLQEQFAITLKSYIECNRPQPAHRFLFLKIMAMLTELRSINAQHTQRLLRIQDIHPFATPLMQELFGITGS
As to the kind of experiment: PXR induction assay in DPX2 cells (luciferase reporter). The format is cell-based. As to the method: 1. The potential of the test compounds to induce the activity of drug metabolism enzymes by in vitro activating PXR was evaluated.
1) DPX2 (HepG2 cells were stably transfected with the human PXR gene and the fluorescent reporter gene) cells were purchased from Puracyp (Carlsbad, CA).
When covering 80-90% of the bottom of the culture flask, the cells were digested.
4) The cell suspension was transferred to a conical-bottomed centrifuge tube and centrifuged at 120 g for 10 min. The cells were suspended in the plating medium and adjusted to a concentration of 4×10^5 cells/mL. 100 μL of diluted cells were added to each well of a 96-well cell culture plate. The culture plate was placed in an incubator and incubated at 37° C. for 24 h before PXR activation assays.
The final concentration of DMSO was 0.1%. To 1 mL of pre-incubated medium, 1 μL of DMSO was added as a solvent control.
2) The cell culture plate was removed from the incubator, and the medium was discarded. 100 μL of each of the test compounds and positive compound was added to an appropriate well in duplicate, and the cell plate was placed in an incubator and incubated for 24 h.
1) After […] of drug treatment, quantification of PXR activation could be performed on the culture.
2) The CellTiter-Fluor™ cell viability assay kit and the One-Glo luciferase reagent were equilibrated to room temperature. The GF-AFC (10 μL) substrate was added to assay buffer (10 mL) to form 2× reagent, and the reagent was then diluted to 1× with 10 mL of PBS; the ONE-Glo substrate was added to the ONE-Glo luciferase assay buffer.
5) The ONE-Glo reagent was poured into a reagent reservoir, and then 50 μL was transferred to each well using a multi-channel pipette. The reagent was gently and well mixed, and the mixture was incubated and well mixed at room temperature for 5 min. After the incubation, the luminescence value of each well was read using a luminometer.
The luciferase activity was expressed in terms of […], where RLU is the mean luminescence intensity value of two replicates of each concentration of each compound, and RFU is the mean fluorescence intensity of two replicates of each concentration of each compound.
The calculation formula for induction fold: […]

The mark [1] stands for this setting: compound concentration 0.123 μM.

Some results are limits rather than exact numbers.

T1 sequence (P11802 whole entry): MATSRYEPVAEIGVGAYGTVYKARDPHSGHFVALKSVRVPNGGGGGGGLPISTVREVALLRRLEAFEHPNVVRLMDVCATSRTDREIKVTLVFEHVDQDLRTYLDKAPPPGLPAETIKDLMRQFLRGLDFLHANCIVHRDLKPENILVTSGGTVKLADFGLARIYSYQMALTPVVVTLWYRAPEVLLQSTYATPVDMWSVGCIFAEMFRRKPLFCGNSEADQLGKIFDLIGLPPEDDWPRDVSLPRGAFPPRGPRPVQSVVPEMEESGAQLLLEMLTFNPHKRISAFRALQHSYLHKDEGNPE
T1 sequence (P24385 whole entry partner): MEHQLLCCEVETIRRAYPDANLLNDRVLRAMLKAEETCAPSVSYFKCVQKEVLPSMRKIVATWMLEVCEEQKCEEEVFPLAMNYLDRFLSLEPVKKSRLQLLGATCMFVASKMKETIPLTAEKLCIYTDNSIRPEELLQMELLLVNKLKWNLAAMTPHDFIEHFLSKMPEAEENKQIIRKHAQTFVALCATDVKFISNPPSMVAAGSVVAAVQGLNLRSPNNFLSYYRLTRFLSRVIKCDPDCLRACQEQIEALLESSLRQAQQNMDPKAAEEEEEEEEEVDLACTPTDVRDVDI
T2 sequence (Q00534 whole entry): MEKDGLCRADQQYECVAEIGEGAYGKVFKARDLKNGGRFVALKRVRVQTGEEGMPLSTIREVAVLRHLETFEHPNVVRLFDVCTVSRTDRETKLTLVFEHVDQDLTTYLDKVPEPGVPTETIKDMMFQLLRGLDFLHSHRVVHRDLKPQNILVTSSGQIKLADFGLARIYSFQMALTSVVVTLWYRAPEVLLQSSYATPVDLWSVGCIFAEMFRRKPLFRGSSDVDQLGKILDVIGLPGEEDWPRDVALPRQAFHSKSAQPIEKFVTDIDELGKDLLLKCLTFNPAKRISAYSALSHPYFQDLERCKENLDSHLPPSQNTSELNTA
T2 sequence (P30281 whole entry partner): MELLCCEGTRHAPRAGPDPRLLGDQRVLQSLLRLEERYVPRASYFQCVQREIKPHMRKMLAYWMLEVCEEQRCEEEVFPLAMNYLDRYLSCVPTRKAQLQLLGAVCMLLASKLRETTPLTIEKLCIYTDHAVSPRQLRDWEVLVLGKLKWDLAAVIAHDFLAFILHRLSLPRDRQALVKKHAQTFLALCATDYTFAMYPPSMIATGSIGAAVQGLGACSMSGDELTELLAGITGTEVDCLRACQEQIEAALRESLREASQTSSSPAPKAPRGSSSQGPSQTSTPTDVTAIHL

Consider `Cc1nc2c(F)cc(-c3nc(N[C@@H]4CCOC[C@H]4O)ncc3Cl)c3c2n1[C@@H](C)CO3` (single isomer, unassigned) [Isomer 1 with a retention time of 3.518 min in Example 3], for which the IC50 at CDK4/cyclin D1 worked out at 15 nM; at CDK6/cyclin D3 it was 64 nM.
Consider `C[C@H]1COc2c(-c3nc(N[C@@H]4CCOC[C@H]4O)ncc3Cl)cc(F)c3nc(C(C)(C)O)n1c23` (single isomer, unassigned) [Isomer 1 with a retention time of 2.078 min in Example 4], for which the Induction fold worked out at 0.87 at human PXR (setting [1]) and 1.43 at human PXR (compound concentration 10.0 μM).
Consider `Cc1nc2c(F)cc(-c3nc(N[C@@H]4CCOC[C@H]4O)ncc3F)c3c2n1[C@@H](C)CO3` (single isomer, unassigned) [Isomer 1 with a retention time of 2.903 min in Example 1], for which the IC50 is 26 nM on CDK4/cyclin D1 and over 1000 nM at CDK6/cyclin D3.
On to `C[C@@H]1COc2c(-c3nc(N[C@@H]4CCOC[C@H]4O)ncc3Cl)cc(F)c3nc(C(C)(C)O)n1c23` (single isomer, unassigned) [Isomer 2 with a retention time of 1.887 min in Example 4], for which the Induction fold at human PXR (setting [1]) is reported as 0.99; on human PXR (compound concentration 10.0 μM), 1.48.
`Cc1nc2c(F)cc(-c3nc(N[C@@H]4CCN(S(C)(=O)=O)C[C@H]4O)ncc3Cl)c3c2n1[C@@H](C)CO3` (single isomer, unassigned) [Isomer 2 with a retention time of 2.499 min in Example 2]: the IC50 on CDK4/cyclin D1 came to 1.5 nM; at CDK6/cyclin D3 it was 9.1 nM.
`Cc1nc2c(F)cc(-c3nc(N[C@@H]4CCN(S(C)(=O)=O)C[C@H]4O)ncc3Cl)c3c2n1[C@@H](C)CO3` (single isomer, unassigned) [Isomer 1 with a retention time of 2.094 min in Example 2]: the IC50 at CDK4/cyclin D1 was found to be 2.5 nM; at CDK6/cyclin D3 it was 39 nM.
On the same counts, the results for `Cc1nc2c(F)cc(-c3nc(N[C@@H]4CCOC[C@H]4O)ncc3F)c3c2n1[C@@H](C)CO3` (single isomer, unassigned) [Isomer 2 with a retention time of 3.997 min in Example 1] are 11 nM and 301 nM.
Take `CC1COc2c(-c3nc(N[C@@H]4CCOC[C@H]4O)ncc3Cl)cc(F)c3nc(C(C)(C)O)n1c23` (mixture of isomers) [4f (racemate) in Example 4]: the IC50 on CDK4/cyclin D1 came out at 15 nM; at CDK6/cyclin D3 it was 171 nM.
